Experimental data taken from patent US20230172874A1, “USE OF CANNABIDIOL FOR THE TREATMENT OF INSOMNIA ASSOCIATED TO PAIN” (priority 2021, published 2023).
“Also recorded” adds a separate entry of the source.

Key:
neuropathic rats = experiment: EEG/EMG recording of wakefulness, NREM and REM sleep in neuropathic rats; assay type: in vivo, male Wistar rats
Protocol: Animals. The experiments were performed on male Wistar rats weighing 250 g (six weeks). All animals were housed in standardized animal facilities under a 12 h light/dark cycle (lights on at 7 AM) with ad libitum access to food and water. All surgeries and experimental procedures were performed during the light cycle. Experimental protocols were approved by the Animal Ethics Committee of the local institutional committee for animal use and care (McGill University, Qc, Canada). These protocols follow ethical guidelines for investigation of experimental pain in conscious animals of the IASP, the Canadian Institute of Health Research guidelines for animal care and scientific use.
Spared nerve injury (SNI). SNI was performed according to the method of Decosterd and Woolf^35. Rats were deeply anaesthetized with isofluorane (5%), anaesthesia was confirmed by the absence of a nociceptive reflex reaction to a paw pinch. The sciatic nerve was exposed at mid-thigh level distal to the trifurcation and freed of connective tissue; the three peripheral branches (sural, common peroneal, and tibial nerves) of the sciatic nerve were exposed without stretching nerve structures. Both tibial and common peroneal nerves were ligated and transected together. Carprofen (5 mg/kg) was administrated subcutaneously pre-surgery as well as three days every 24 hours post-surgery as analgesic. After SNI, each rat was housed in its home cage for 15 days until the neuropathy is developed.
EEG/EMG Implantation. Neuropathic rats (10 days after surgery) and naïve rats were placed in a stereotaxic frame following isoflurane-induced anesthesia (5%). Anaesthesia was confirmed by the absence of a nociceptive reflex reaction to a paw pinch. For EEG monitoring, three stainless-steel epidural electrodes were positioned through 1.5 mm burr holes: one over the parietal cortex on each side, and the third (as a reference) in the right prefrontal cortex. In rats, their respective locations relative to bregma were −2 mm anteroposterior (AP) and −3 mm lateral (L), −7 mm AP and −3 mm L, and −4.5 mm AP and +3 mm L, according to Paxinos and Watson. For EMG monitoring, three flexible stainless-steel wire electrodes, silicon insulation removed at the terminal 3-4 mm, were implanted into the neck muscles (two bilaterally and one in the middle). Wires were fused with the electrodes and the connectors were fixed to the skull with dental acrylic (Coltene/Whaledent). Carprofen (10mg/kg) was administrated subcutaneously pre-surgery as well as three days every 24 hours post-surgically as analgesic. Each rat was single-caged post-surgery and allowed to recover for the next 5 days^13. 24 hours after surgery, the rats were placed in the recording chamber and connected to a flexible 6-flat wire (3M Scotchflex™) in a freely moving manner for several hours during the subsequent 5 days. No recordings were performed, but tolerance to the cable and sleep behavior were observed. All rats from a home cage were also grouped for one hour each day for socialization to circumvent anxious-depressive-like behavior induced by social isolation^13.
Study design for EEG and EMG assessment. […] […] In another cohort of rats rimonabant (1 mg/kg) was also injected i.p. at 6 A.M. in neuropathic rats.
EEG and EMG recording. Six days after surgery (16 days post-SNI), mechanical allodynia was assessed via von Frey test, and EEG/EMG was recorded for a period of 6 h (from 6 AM to 12 PM). The treatments (described below) were performed at 6:00 A.M., right after the recording had started. […] Consecutive 10 s epochs were subjected to a fast Fourier transform (FFT), and EEG power spectra density was computed in the frequency range of 0-64 Hz^13.
Analysis of EEG and EMG data. The three classical vigilance states as described in the rat were discriminated on the basis of the cortical EEG and neck EMG activities. […]

naïve animals = conditions: cited from earlier work
rats = conditions: cited from earlier work
[1] = 6 h EEG/EMG, i.p., CBD 20 mg/kg, WAY 100635 2 mg/kg
[2] = NP rats, 6 h EEG/EMG, i.p., CBD 20 mg/kg, rimonabant 1 mg/kg
[3] = naïve animals, acute systemic 20 mg/kg

C=C(C)[C@@H]1CCC(C)=C[C@H]1c1c(O)cc(CCCCC)cc1O [CBD, 2-[(1R,6R)-3-methyl-6-prop-1-en-2-ylcyclohex-2-en-1-yl]-5-pentylbenzene-1,3-diol]
total NREM sleep, relative to NP rats treated with vehicle (neuropathic rats; [1]): able to reverse NREM sleep impairments; also recorded: restored NREM sleep
total time of wakefulness, relative to NP rats treated with vehicle (neuropathic rats; [1]): decrease in the amount of time spent in wakefulness; also recorded: decreased wakefulness
REM sleep (total time), relative to NP rats treated with vehicle (neuropathic rats; 6 h EEG/EMG, i.p., CBD 20 mg/kg, WAY 100635 2 mg/kg, rimonabant 1 mg/kg): restored the normal REM sleep
NREM sleep, relative to naïve animals treated with vehicle (neuropathic rats; NP rats, 6 h EEG/EMG, CBD 20 mg/kg i.p.): no difference was detected
REM sleep, relative to naïve animals treated with vehicle (neuropathic rats; [2]): no difference was detected
wakefulness, relative to naïve animals treated with vehicle (neuropathic rats; [2]): no difference was detected
reversal of sleep perturbations induced by neuropathic pain (sleep-wake cycle) (neuropathic rats; NP rats, i.p., CBD 20 mg/kg, rimonabant 1 mg/kg): Reverses the Sleep Perturbations; also recorded: restored the normal sleep-wake cycle; also recorded: restores the impaired sleep in a dose-dependent manner
sleep duration and sleep parameters (naïve animals; [3]): no significant effect
slow-wave sleep (SWS) latency (naïve animals; [3]): reduced slow-wave sleep (SWS) latency
REM sleep (naïve animals; single doses of 40 mg/kg): without affecting REM sleep
SWS (naïve animals; single doses of 40 mg/kg): increased SWS
SWS latency (naïve animals; single doses of 40 mg/kg): decreased SWS latency
increase in SWS duration (rats; CBD dose of 40 mg/kg): not statistically significant
total percentage of sleep (rats; CBD doses of 10 and 40 mg/kg): significantly increased
